This series can be described thus: Degradation (hydrolysis) of Compound I after wet granulation with water. The class given is physicochemical. Conditions: granulation liquid deionized water; LOD value less than or equal to about 1% for the dried granulate. As to the method:
Once blended, a granulation liquid, deionized water, is added for wet kneading. The impeller and chopper speeds are increased to setting 2 (e.g., 306 rpm and 500 rpm, respectively, for the impeller and chopper). The kneading is conducted at room temperature. After granulation, the moist granulates are dried in a fluid-bed dryer with an air inlet temperature of approximately 70° C. to obtain granulates. The moist granulates are dried such that there is a LOD value below 1.0%. The granulates are subsequently sieved using a screen with a mesh size of 1.25 mm or 0.8 mm. As mentioned above, Compound I is a salt of an ester which is potentially sensitive to hydrolysis in the presence of water.

Where a name gives a salt, the structure may show the parent alone.

Take `CC(C)[C@H](N)C(=O)O[C@@H]1[C@@H](CO)O[C@@H](n2ccc(N)nc2=O)[C@]1(C)O` [Compound I, dihydrochloride salt]: the “degradation, e.g., due to hydrolysis, after wet granulation” value is recorded as “does not result in an increase in degradation”.

These data come from US20080207533A1, “Pharmaceutical Compositions” (priority 2005, published 2008).
